The text below walks through data of US20230026360A1, “DETECTION OF MOLECULAR INTERACTIONS” (Orionis Biosciences, Inc., priority 2019, published 2023).

Holding throughout (type): cell-based
Assay [1] deals with T1, CRBN (Homo sapiens, UniProt Q96SW2).
T1 construct: expressed in transfected cells; host or cells: HEK293T
The experiment in a line: CRBN inverse MAPPIT competition assay against TMP-lenalidomide hybrid ligand. The note with it: 300 nM TMP-lenalidomide; leptin; HEK293T; specificity versus gp130-REM2 control (CTRL). The text has this:
As in Example 6, HEK293T cells were transfected with a plasmid encoding E. coli Dihydrofolate Reductase (DHFR) fused to the tails of the cytoplasmic domain of a mutated leptin receptor (pCLG-DHFR), a plasmid encoding a CRBN prey fused to the gp130 cytoplasmic domain or a plasmid encoding a gp130-REM2 control fusion that can directly interact with the leptin receptor of the DHFR fusion protein, and the STAT3 responsive pXP2d2-rPAPI-luciferase reporter plasmid—using a standard transfection method, as described (Lievens, et al. “Array MAPPIT: high-throughput interactome analysis in mammalian cells.” Journal of Proteome Research 8.2 (2009): 877-886). […] Data points in FIGS. 10A-B represent the average luciferase activity of triplicate samples derived from cells treated with leptin+test compound for the REM2 control (CTRL) or cells treated with leptin+hybrid ligand+test compound (CRBN) relative to leptin (CTRL) or leptin+hybrid ligand (CRBN) only treated samples (the signals obtained in absence of added test compound for both cases is set at 100% of luciferase activity on y-axis). Error bars represent standard deviations. Curves were fit using 4-parameter nonlinear regression in […] PRISM software.

Assay [2] has as its target T2, DCAF15-RBM39 binding (Homo sapiens, UniProt Q66K64).
T2 construct: expressed in transfected cells; host or cells: HEK293T
The experiment in a line: MAPPIT inverse assay, RBM39 receptor fusion + DCAF15 gp130 fusion. The note with it: inverse configuration; leptin; HEK293T. The text has this:
(§1) In this example, MAPPIT forward and inverse assays were developed that enable the assessment of sulfonamides to induce binding between DCAF15 and RBM39. […] The experimental setup was according to the procedure described before, using the following plasmid constructs encoding the MAPPIT receptor and gp130 fusions: in forward mode the DCAF15 bait was fused to a MAPPIT chimeric receptor construct containing the extracellular leptin receptor domain (pCLL-DCAF15) and RBM39 proteins was fused to the partial gp130 domain; in inverse mode, the DCAF15 bait was fused to the partial gp130 domain and RBM39 was fused to a MAPPIT transmembrane receptor (pCLG-RBM39). […] Cells were treated with leptin without or with the indicated dose of test compound (indisulam, tasisulam, CQS or E7820) at 24 hours after transfection. Luciferase activity was measured 24 hours after test compound treatment using the Luciferase Assay System kit (PROMEGA, Madison, Wis.) with an Ensight plate reader (PERKIN ELMER LIFE SCIENCES, Waltham, Mass.). […] Error bars represent standard deviations. […] The results shown in FIG. 12 indicate that only in the inverse assay mode sulfonamide-induced DCAF15-RBM39 binding can be observed.

The target of assay [3] is T2, DCAF15-RBM39 binding. In words: MAPPIT forward assay, DCAF15 receptor fusion + RBM39 gp130 fusion. The settings on record: forward configuration; leptin; HEK293T.
Text: as §1

“Also recorded” adds a separate entry of the source.

Turning to `Cc1nc2cccc(N)c2c(=O)n1C1CCC(=O)NC1=O` (stereo not drawn) [CC-122], the “competition with TMP-lenalidomide hybrid ligand for binding to CRBN (inhibition of luciferase signal)” value in assay [1] is recorded as “specifically inhibit hybrid-ligand induced luciferase reporter activation in a dose-dependent manner; also recorded: competed efficiently”.

Turning to `Cc1ccc(NS(=O)(=O)c2cccc(C#N)c2)c2[nH]cc(C#N)c12` [E7820], the “sulfonamide-induced recruitment of RBM39 to DCAF15 (luciferase signal)” value (shortened to “sulfonamide-induced recruitment of RBM39”) in assay [2] is “dose-dependent luciferase signal increase”.

For the compound `NS(=O)(=O)c1ccc(S(=O)(=O)Nc2cccc3c(Cl)c[nH]c23)cc1` [indisulam], the “sulfonamide-induced recruitment of RBM39” value in assay [2] is given as “dose-dependent luciferase signal increase”; in assay [3] it was “only in inverse mode could a dose-dependent luciferase signal increase be observed”.

With `Nc1cccc2c1C(=O)N(C1CCC(=O)NC1=O)C2=O` (stereo not drawn) [pomalidomide], in assay [1], the “competition with TMP-lenalidomide hybrid ligand for binding to CRBN (inhibition of luciferase signal)” value is listed as “specifically inhibit hybrid-ligand induced luciferase reporter activation in a dose-dependent manner; also recorded: competed efficiently”.

For the compound `O=C(NS(=O)(=O)c1ccc(Br)s1)c1ccc(Cl)cc1Cl` [tasisulam], in assay [2], the “sulfonamide-induced recruitment of RBM39” value is reported as “dose-dependent luciferase signal increase”.
